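All cell lines were grown in 96-well plates and treated with compound for 48 hours. Definition used: TGI = concentration required for complete inhibition of growth.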
How the values were obtained:
Assay in all cases: inhibition of tumour cell growth, NCI panel, 48 h
786-0 renal = tested on: 786-0 renal
A498 renal = tested on: A498 renal
A549 NSCLC = tested on: A549 NSCLC
ACHN renal = tested on: ACHN renal
BT-549 breast = tested on: BT-549 breast
CAKI-1 renal = tested on: CAKI-1 renal
CCRF-CEM leukemia = tested on: CCRF-CEM leukemia
COLO 205 colon = tested on: COLO 205 colon
DU-145 prostate = tested on: DU-145 prostate
EKVX NSCLC = tested on: EKVX NSCLC
HCC-2998 colon = tested on: HCC-2998 colon
HCT-116 colon = tested on: HCT-116 colon
HCT-15 colon = tested on: HCT-15 colon
HL-60(TB) leukemia = tested on: HL-60(TB) leukemia
HOP-62 NSCLC = tested on: HOP-62 NSCLC
HOP-92 NSCLC = tested on: HOP-92 NSCLC
HS 578T breast = tested on: HS 578T breast
HT29 colon = tested on: HT29 colon
IGROV1 ovarian = tested on: IGROV1 ovarian
K-562 leukemia = tested on: K-562 leukemia
KM12 colon = tested on: KM12 colon
LOX IMVI melanoma = tested on: LOX IMVI melanoma
M14 melanoma = tested on: M14 melanoma
MALME-3M melanoma = tested on: MALME-3M melanoma
MCF7 breast = tested on: MCF7 breast
MDA-MB-231 breast = tested on: MDA-MB-231 breast
MDA-MB-435 = tested on: MDA-MB-435
MDA-N = tested on: MDA-N
MOLT-4 leukemia = tested on: MOLT-4 leukemia
NCI-H226 lung = tested on: NCI-H226 lung
NCI-H23 lung = tested on: NCI-H23 lung
NCI-H460 lung = tested on: NCI-H460 lung
NCI-H522 lung = tested on: NCI-H522 lung
NCI/ADR-RES ovarian = tested on: NCI/ADR-RES ovarian
OVCAR-3 ovarian = tested on: OVCAR-3 ovarian
OVCAR-4 ovarian = tested on: OVCAR-4 ovarian
OVCAR-5 ovarian = tested on: OVCAR-5 ovarian
OVCAR-8 ovarian = tested on: OVCAR-8 ovarian
PC-3 prostate = tested on: PC-3 prostate
RPMI-8226 leukemia = tested on: RPMI-8226 leukemia
RXF 393 renal = tested on: RXF 393 renal
SF-268 CNS = tested on: SF-268 CNS
SF-295 CNS = tested on: SF-295 CNS
SF-539 CNS = tested on: SF-539 CNS
SK-MEL-2 melanoma = tested on: SK-MEL-2 melanoma
SK-MEL-28 melanoma = tested on: SK-MEL-28 melanoma
SK-MEL-5 melanoma = tested on: SK-MEL-5 melanoma
SK-OV-3 ovarian = tested on: SK-OV-3 ovarian
SN12C renal = tested on: SN12C renal
SNB-19 CNS = tested on: SNB-19 CNS
SNB-75 CNS = tested on: SNB-75 CNS
SR leukemia = tested on: SR leukemia
SW-620 colon = tested on: SW-620 colon
T-47D breast = tested on: T-47D breast
TK-10 renal = tested on: TK-10 renal
UACC-257 melanoma = tested on: UACC-257 melanoma
UACC-62 melanoma = tested on: UACC-62 melanoma
UO-31 renal = tested on: UO-31 renal
U251 CNS = tested on: U251 CNS

SMILES: Cc1ccc([N+](=O)[O-])cc1S(=O)(=O)Nc1ccc(C2=NOC(c3ccco3)C2)cc1 (centres undefined)
- TGI (786-0 renal): 34.9 µM
- TGI (A498 renal): 34.6 µM
- TGI (A549 NSCLC): 59.7 µM
- TGI (ACHN renal): 49 µM
- TGI (BT-549 breast): 39.2 µM
- TGI (CAKI-1 renal): 70.4 µM
- TGI (CCRF-CEM leukemia): > 100 µM
- TGI (COLO 205 colon): 80.9 µM
- TGI (DU-145 prostate): 39.3 µM
- TGI (EKVX NSCLC): 61.9 µM
- TGI (HCC-2998 colon): 31.9 µM
- TGI (HCT-116 colon): 31.9 µM
- TGI (HCT-15 colon): 32 µM
- TGI (HL-60(TB) leukemia): 54.7 µM
- TGI (HOP-62 NSCLC): 30.8 µM
- TGI (HOP-92 NSCLC): 88.9 µM
- TGI (HS 578T breast): > 100 µM
- TGI (HT29 colon): 56 µM
- TGI (IGROV1 ovarian): 84.4 µM
- TGI (K-562 leukemia): 59.3 µM
- TGI (KM12 colon): 24.7 µM
- TGI (LOX IMVI melanoma): 40.2 µM
- TGI (M14 melanoma): 32.8 µM
- TGI (MALME-3M melanoma): 53.5 µM
- TGI (MCF7 breast): 35.5 µM
- TGI (MDA-MB-231 breast): 33.1 µM
- TGI (MDA-MB-435): 11.8 µM
- TGI (MDA-N): 31.5 µM
- TGI (MOLT-4 leukemia): 46.6 µM
- TGI (NCI-H226 lung): 39.6 µM
- TGI (NCI-H23 lung): 37.4 µM
- TGI (NCI-H460 lung): 37.2 µM
- TGI (NCI-H522 lung): 32.7 µM
- TGI (NCI/ADR-RES ovarian): 52.6 µM
- TGI (OVCAR-3 ovarian): 30.7 µM
- TGI (OVCAR-4 ovarian): 32.7 µM
- TGI (OVCAR-5 ovarian): 52.2 µM
- TGI (OVCAR-8 ovarian): > 100 µM
- TGI (PC-3 prostate): 40.5 µM
- TGI (RPMI-8226 leukemia): 96.8 µM
- TGI (RXF 393 renal): 23.3 µM
- TGI (SF-268 CNS): 97.1 µM
- TGI (SF-295 CNS): 46.5 µM
- TGI (SF-539 CNS): 68.3 µM
- TGI (SK-MEL-2 melanoma): 33.8 µM
- TGI (SK-MEL-28 melanoma): 43.5 µM
- TGI (SK-MEL-5 melanoma): 27.7 µM
- TGI (SK-OV-3 ovarian): 97.4 µM
- TGI (SN12C renal): 52.6 µM
- TGI (SNB-19 CNS): 37.9 µM
- TGI (SNB-75 CNS): 35.7 µM
- TGI (SR leukemia): 23.8 µM
- TGI (SW-620 colon): 58.9 µM
- TGI (T-47D breast): 89.4 µM
- TGI (TK-10 renal): > 100 µM
- TGI (UACC-257 melanoma): 39.1 µM
- TGI (UACC-62 melanoma): 27.1 µM
- TGI (UO-31 renal): 32.8 µM

SMILES: Cc1cc2c(cc1C)OC(=O)CC2
- TGI (786-0 renal): > 100 µM
- TGI (A498 renal): > 100 µM
- TGI (A549 NSCLC): > 100 µM
- TGI (ACHN renal): > 100 µM
- TGI (BT-549 breast): > 100 µM
- TGI (CAKI-1 renal): > 100 µM
- TGI (CCRF-CEM leukemia): > 100 µM
- TGI (COLO 205 colon): > 100 µM
- TGI (DU-145 prostate): > 100 µM
- TGI (EKVX NSCLC): > 100 µM
- TGI (HCC-2998 colon): > 100 µM
- TGI (HCT-116 colon): > 100 µM
- TGI (HL-60(TB) leukemia): > 100 µM
- TGI (HOP-62 NSCLC): > 100 µM
- TGI (HOP-92 NSCLC): > 100 µM
- TGI (HS 578T breast): > 100 µM
- TGI (HT29 colon): > 100 µM
- TGI (IGROV1 ovarian): > 100 µM
- TGI (K-562 leukemia): > 100 µM
- TGI (KM12 colon): > 100 µM
- TGI (LOX IMVI melanoma): > 100 µM
- TGI (M14 melanoma): > 100 µM
- TGI (MALME-3M melanoma): > 100 µM
- TGI (MCF7 breast): > 100 µM
- TGI (MDA-MB-231 breast): > 100 µM
- TGI (MDA-MB-435): > 100 µM
- TGI (MDA-N): > 100 µM
- TGI (MOLT-4 leukemia): > 100 µM
- TGI (NCI-H226 lung): > 100 µM
- TGI (NCI-H23 lung): > 100 µM
- TGI (NCI-H460 lung): > 100 µM
- TGI (NCI-H522 lung): > 100 µM
- TGI (NCI/ADR-RES ovarian): > 100 µM
- TGI (OVCAR-3 ovarian): > 100 µM
- TGI (OVCAR-4 ovarian): > 100 µM
- TGI (OVCAR-5 ovarian): > 100 µM
- TGI (OVCAR-8 ovarian): > 100 µM
- TGI (PC-3 prostate): > 100 µM
- TGI (RPMI-8226 leukemia): > 100 µM
- TGI (RXF 393 renal): > 100 µM
- TGI (SF-268 CNS): > 100 µM
- TGI (SF-295 CNS): > 100 µM
- TGI (SF-539 CNS): > 100 µM
- TGI (SK-MEL-2 melanoma): > 100 µM
- TGI (SK-MEL-28 melanoma): > 100 µM
- TGI (SK-MEL-5 melanoma): > 100 µM
- TGI (SN12C renal): > 100 µM
- TGI (SNB-75 CNS): > 100 µM
- TGI (SR leukemia): > 100 µM
- TGI (SW-620 colon): > 100 µM
- TGI (T-47D breast): > 100 µM
- TGI (TK-10 renal): > 100 µM
- TGI (U251 CNS): > 100 µM
- TGI (UACC-257 melanoma): > 100 µM
- TGI (UACC-62 melanoma): > 100 µM
- TGI (UO-31 renal): > 100 µM

— PubChem BioAssay (NCI)
